Experimental data as given in PMC5618632, “In Vitro Glucuronidation of Wushanicaritin by Liver Microsomes, Intestine Microsomes and Expressed Human UDP-Glucuronosyltransferase Enzymes” (International Journal of Molecular Sciences, 2017).

Assays:
[1] = Glucuronidation by pooled human liver microsomes (HLM), UDPGA-supplemented; assay type: in vitro ADME; details: probe substrate glucuronidation; for microsomal CLint / Km: human, pooled liver microsomes; for Km: read-out: Km
Description: (§1) The reaction was terminated by adding ice-cold acetonitrile. […] All experiments were performed in triplicate.
(§2) The parameter were as follow. V is the formation rate of the product. Vmax is the maximal velocity. […] Ksi is the substrate inhibition constant. […] (1) V=Vmax ×[S]/Km+[S] (2) V=Vmax ×[S]/Km + [S](1+[S]/Ksi)

UGT2B7 = biological target: T1, UGT2B7 (Homo sapiens, UniProt P16662); test: Glucuronidation by expressed UGT2B7
T1 sequence (P16662 24-529): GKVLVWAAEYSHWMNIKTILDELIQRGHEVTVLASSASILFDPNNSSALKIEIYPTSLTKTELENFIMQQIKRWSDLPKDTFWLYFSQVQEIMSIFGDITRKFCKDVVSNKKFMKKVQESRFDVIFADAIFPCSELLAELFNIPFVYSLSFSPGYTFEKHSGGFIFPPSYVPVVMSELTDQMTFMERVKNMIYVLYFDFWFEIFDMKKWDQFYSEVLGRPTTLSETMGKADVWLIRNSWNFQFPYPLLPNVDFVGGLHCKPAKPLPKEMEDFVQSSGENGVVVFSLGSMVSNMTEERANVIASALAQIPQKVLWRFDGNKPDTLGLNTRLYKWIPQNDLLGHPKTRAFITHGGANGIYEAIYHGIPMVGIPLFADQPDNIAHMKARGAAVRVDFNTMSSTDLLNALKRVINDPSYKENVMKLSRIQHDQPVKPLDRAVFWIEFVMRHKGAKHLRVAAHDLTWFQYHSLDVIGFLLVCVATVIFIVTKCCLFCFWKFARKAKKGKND
Description: as §1
The gradient elution program was the same as the UPLC condition of the structural identification of wushanicaritin glucuronides above. The detection wavelength was set at 270 nm, and the injection volume was 8 µL.
as §2
(§3) The contribution of individual expressed UGT enzymes to wushanicaritin glucuronidation in HLM was evaluated by the relative activity factor (RAF) approach as described in previous studies. The relative activity factor was defined as the activity ratio of HLM to an expressed UGT enzyme (Supersome) toward a probe substrate for this enzyme using Equation (3). The relative amount of wushanicaritin glucuronidation in HLM attributed to an expressed UGT enzyme was estimated by multiplying the glucuronidation activity (i.e., the intrinsic clearance) derived with this enzyme by the corresponding RAF. […] The contributions of individual UGT enzyme were calculated according to Equation (4). (3) RAF=CLint{probe,pHLM}/CLint{probe,Supersome} (4) Contribution of UGTs=CLint(wushanica ritin,UGTs)/CLint(wushanica ritin,pHLM)×RAF

UGT1A3 = biological target: T2, UGT1A3 (Homo sapiens, UniProt P35503); test: Glucuronidation by expressed UGT1A3; assay type: in vitro ADME; details: human, expressed UGT1A3 (Supersome); probe substrate glucuronidation; UGT1A3
T2 construct: purchased Corning Biosciences
T2 sequence (P35503 29-534): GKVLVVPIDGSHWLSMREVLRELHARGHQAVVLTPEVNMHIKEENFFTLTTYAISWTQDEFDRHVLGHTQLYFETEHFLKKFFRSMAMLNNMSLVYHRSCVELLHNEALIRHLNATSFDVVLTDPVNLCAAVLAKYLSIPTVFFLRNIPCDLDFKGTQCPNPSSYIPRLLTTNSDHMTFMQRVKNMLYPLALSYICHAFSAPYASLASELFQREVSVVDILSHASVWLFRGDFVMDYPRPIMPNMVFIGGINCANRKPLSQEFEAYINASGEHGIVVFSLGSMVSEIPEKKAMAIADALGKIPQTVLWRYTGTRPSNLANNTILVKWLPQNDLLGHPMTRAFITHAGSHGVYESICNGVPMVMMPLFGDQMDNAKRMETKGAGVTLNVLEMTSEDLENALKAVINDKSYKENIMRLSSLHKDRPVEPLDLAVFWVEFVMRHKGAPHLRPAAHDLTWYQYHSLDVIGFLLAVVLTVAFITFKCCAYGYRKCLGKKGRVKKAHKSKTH
Description: as §1
(§4) A series of working solutions of wushanicaritin were determined by the Acquity™ UPLC I-Class system equipped with a BEH C18 column (2.1 mm × 50 mm, 1.7 µm, Waters, Ireland, Part No. 186002350). The gradient elution program was the same as the UPLC condition of the structural identification of wushanicaritin glucuronides above. The detection wavelength was set at 270 nm, and the injection volume was 8 µL.
as §2
as §3, with “(3) RAF=CLint{probe,pHLM}/CLint{probe,Supersome} (4) Contribution of UGTs=CLint(wushanica ritin,UGTs)/CLint(wushanica ritin,pHLM)×RAF” left out

expressed human UGT1A3 = biological target: T3, expressed human UGT1A3 (Homo sapiens, UniProt P35503); test: Glucuronidation by expressed UGT1A3; assay type: in vitro ADME; details: relative activity factor for UGT1A3 = CLint(probe, pHLM)/CLint(probe, Supersome)
T3 construct: purchased Corning Biosciences
T3 sequence (P35503 29-534): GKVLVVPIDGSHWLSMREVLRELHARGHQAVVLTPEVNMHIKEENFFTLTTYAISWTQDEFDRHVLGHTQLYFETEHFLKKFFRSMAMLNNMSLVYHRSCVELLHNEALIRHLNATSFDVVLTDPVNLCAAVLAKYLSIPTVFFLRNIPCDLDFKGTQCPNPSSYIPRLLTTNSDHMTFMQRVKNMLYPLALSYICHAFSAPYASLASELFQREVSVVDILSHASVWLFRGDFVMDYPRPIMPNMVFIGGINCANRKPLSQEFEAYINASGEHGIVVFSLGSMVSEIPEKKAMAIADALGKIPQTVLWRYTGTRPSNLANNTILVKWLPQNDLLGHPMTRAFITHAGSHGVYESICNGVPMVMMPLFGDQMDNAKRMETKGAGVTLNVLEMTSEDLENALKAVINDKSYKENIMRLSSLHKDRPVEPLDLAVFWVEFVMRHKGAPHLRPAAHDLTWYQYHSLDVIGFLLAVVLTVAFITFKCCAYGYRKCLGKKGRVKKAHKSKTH
Description: as §1, §4, §2
as §3, with “(3) RAF=CLint{probe,pHLM}/CLint{probe,Supersome} (4) Contribution of UGTs=CLint(wushanica ritin,UGTs)/CLint(wushanica ritin,pHLM)×RAF” left out

Compound | microsomal CLint [1] [µL/min/mg] | Km [1] [µM] | Vmax [1] [nmol/min/mg] | Km (UGT2B7) [µM] | microsomal CLint (UGT2B7; expressed UGT2B7 (Supersome)) [µL/min/mg] | microsomal CLint (UGT1A3) [µL/min/mg] | RAF (expressed human UGT1A3)
Cc1cn([C@H]2C[C@H](N=[N+]=[N-])[C@@H](CO)O2)c(=O)[nH]c1=O [AZT, zidovudine, reference compound] | 0.27 ± 0.02 | 4360 ± 341 | 1.18 ± 0.53 | 1600 ± 121 | 0.26 ± 0.02 |  | 
C[C@H](CCC(=O)O)[C@H]1CC[C@H]2[C@@H]3[C@H](O)C[C@@H]4C[C@H](O)CC[C@]4(C)[C@H]3CC[C@]12C [CDCA, chenodeoxycholic acid, reference compound] | 8.86 ± 0.74 | 14.3 ± 1.16 | 0.13 ± 0.003 |  |  | 18.5 ± 1.28 | 0.48
